Measured values: PubChem BioAssay (NCI)
Values joined by “and” are separate entries in the source; they are usually repeats but may differ in a detail not shown here. Equal entries are not always repeated.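 Following 48 hours of exposure in 96-well plates, responses at five concentrations were used to interpolate endpoints linearly. GI50 is the concentration that inhibits growth by half. TGI is the concentration that stops growth completely.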

Assays:
Assay in all cases: NCI tumour cell line growth inhibition, 48 h
COLO 205 colon = system: COLO 205 colon
M14 melanoma = system: M14 melanoma
UACC-62 melanoma = system: UACC-62 melanoma
HCC-2998 colon = system: HCC-2998 colon
LOX IMVI melanoma = system: LOX IMVI melanoma
UO-31 renal = system: UO-31 renal
HL-60(TB) leukemia = system: HL-60(TB) leukemia
HOP-92 NSCLC = system: HOP-92 NSCLC
SK-MEL-28 melanoma = system: SK-MEL-28 melanoma
RXF 393 renal = system: RXF 393 renal

Row | Compound | TGI (COLO 205 colon) [µM] | TGI (M14 melanoma) [µM] | TGI (UACC-62 melanoma) [µM] | TGI (HCC-2998 colon) [µM] | TGI (LOX IMVI melanoma) [µM] | TGI (UO-31 renal) [µM] | TGI (HL-60(TB) leukemia) [µM] | TGI (HOP-92 NSCLC) [µM] | TGI (SK-MEL-28 melanoma) [µM] | TGI (RXF 393 renal) | GI50 (COLO 205 colon) [µM] | GI50 (M14 melanoma) [µM] | GI50 (SK-MEL-28 melanoma) [µM] | GI50 (UACC-62 melanoma) [µM] | GI50 (LOX IMVI melanoma) [µM] | GI50 (RXF 393 renal) [µM] | GI50 (UO-31 renal) [µM] | GI50 (HL-60(TB) leukemia) [µM] | GI50 (HOP-92 NSCLC) [µM] | GI50 (HCC-2998 colon) [µM]
1 | CCCCN(CCCC)C(=O)C(=O)CC(=O)c1ccc(Br)cc1 | > 100 | > 100 | > 100 | > 100 | > 100 | > 100 | > 100 | > 100 |  |  |  |  |  |  |  |  |  |  |  | 
2 | O/N=C1/C(=C/c2ccc(F)cc2)CCCC1C(NO)c1ccc(F)cc1 (stereo unspecified) | > 100 | > 100 | > 100 | > 100 |  | 72.5 | 49.1 |  | > 100 | 86.6 µM |  |  |  |  |  |  |  |  |  | 
3 | CC(C)=CC(=O)CC(=O)C(=O)Nc1ccc(C)c(C)c1 |  | > 100 | > 100 |  | > 100 | > 100 | > 100 | > 100 | > 100 |  |  |  |  |  |  |  |  |  |  | 
4 | COc1cc2c3c(n(C)c(=O)c2cc1OC)-c1cc2c(cc1/C3=C\CCCCN)OCO2 | > 100 | 19.6 | 37.8 |  | 41.1 | 13.5 | > 100 | > 100 | > 100 | 57.1 µM | 27.5 | 5.55 | 28.1 | 12.5 | 12.9 | 36 | 3.28 | 4.68 | 43.5 | 
5 | CC(=O)[CH-]C(=O)c1ccccc1.CC(=O)[CH-]C(=O)c1ccccc1.CCN(CC)CC[O-].CCN(CC)CC[O-].Cl.[Ti+4] |  | 45.9 | 91.6 | 76.6 | > 100 | 74.8 | 61.2 |  | 92.6 |  |  | 22.5 | 32.9 | 36 | 43.4 |  | 21.1 | 19.6 |  | 23.1
6 | O=C1c2cc3c(cc2-c2c1c1cc(Cl)c(Cl)cc1c(=O)n2CCCn1ccnc1)OCO3 | > 100 | 11.8 | 0.0117 | > 100 | 0.0183 | > 100 | 15.9 |  | > 100 | 0.0566 µM | < 0.01 | < 0.01 | 0.0665 | < 0.01 | < 0.01 | < 0.01 | < 0.01 | < 0.01 |  | 0.0538
7 | CC(=O)O[C@H]1C(=O)[C@@]2(C)C([C@H](OC(=O)c3ccccc3)[C@]3(O)C[C@H](OC(=O)[C@H](O)[C@H](NC(=O)c4ccccc4)c4ccc(Cl)cc4)C(C)=C1C3(C)C)C1(OC(C)=O)CO[C@@H]1C[C@@H]2O (stereo partly specified) | 0.00842 | 0.027 | 0.00418 | 0.0105 | 55.9 | 11 |  |  |  | 0.0644 µM and 0.0869 µM |  |  |  |  |  | 0.0187 | 1.97 |  |  | 
8 | Cc1ccc(-c2c(C#N)c(N)nc(N3CCOCC3)c2C#N)o1 |  | > 100 | > 100 |  |  | 84 | > 100 | > 100 | > 100 | > 100 µM |  | 87.9 | 71.3 | 39 |  | 40.7 | 21.2 | 46.3 | 23.6 | 
9 | C1CCC([PH+](C2CCCCC2)C2CCCCC2[PH+](C2CCCCC2)C2CCCCC2)CC1.[Au].[CH-]1CCCCC1C1CCCC[N-]1 (stereo unspecified) |  | 2.27 | 0.979 |  |  | 2.69 | 0.826 | 1.14 | 1.79 | 1.18 µM |  | 0.425 | 0.434 | 0.254 |  | 0.278 | 1.36 | 0.272 | 0.241 | 
10 | COc1cc2cc(Oc3ccc(NC(=O)Nc4cccc(C(F)(F)F)c4)cc3)c(C)nc2cc1OCCN1CCCCC1 |  | 3.27 | 3.15 |  |  | 2.79 | 3.74 | 2.34 | 3.14 |  |  | 1.79 | 1.76 | 1.75 |  |  | 1.45 | 1.94 | 1.08 | 
11 | CCOC(=O)/C(C1=N[C@H](C(=O)OCC)CS1)=C(\C)O | > 100 | > 100 | > 100 | > 100 | > 100 | > 100 | > 100 |  | > 100 | > 100 µM |  |  |  |  |  |  |  |  |  | 
12 | O=C(O)CN(c1ccc(Cl)cc1)S(=O)(=O)c1ccccc1 | > 100 | > 100 | > 100 |  | > 100 | > 100 | > 100 | > 100 | > 100 | > 100 µM |  |  |  |  |  |  |  |  |  | 
13 | ClC(=Nc1cccc2ccccc12)N(c1ccccc1)c1ccccc1 |  | > 100 | > 100 | 54.8 | > 100 | > 100 |  |  | > 100 | > 100 µM |  |  |  |  |  |  |  |  |  | 
14 | CC1=C(C(=O)Nc2ccccc2)C(c2ccc3c(c2)OCO3)C(C(=O)Nc2ccccc2)=C(C)N1 | > 100 | > 100 | > 100 | > 100 | 76.5 | > 100 | 42.4 |  | > 100 | 50.2 µM |  |  |  |  |  |  |  |  |  | 
15 | O=c1c(Cl)nnc2sc3ccccc3n12 | > 100 | 91.9 | > 100 |  | 64.5 |  | > 100 | > 100 | > 100 | 81.9 µM | 47 | 22.2 | 59 | 40.8 | 30.5 | 27.8 |  | 18.3 | 20.6 | 
16 | NC(N)=NS(=O)(=O)c1ccc(NC(=O)c2cccc3c(Nc4ccc(S(=O)(=O)N=C(N)N)cc4)c4ccc(Cl)cc4nc23)cc1 | > 100 | > 100 | > 100 | > 100 | > 100 | > 100 |  | 93 | > 100 | > 100 µM |  |  |  |  |  |  |  |  |  | 
17 | NNC(=O)/C(=C/c1cccc([N+](=O)[O-])c1)NC(=O)c1ccccc1 | > 100 | > 100 |  | > 100 | > 100 | > 100 | > 100 | > 100 | > 100 | > 100 µM |  |  |  |  |  |  |  |  |  | 
18 | CC12OC(C(=O)C13CC3)C1C(=O)c3ccccc3C(=O)C12 (stereo unspecified) | > 100 | > 100 |  | > 100 |  | > 100 | 81.6 | 60.7 | 62.1 | 24.9 µM | 89 | 41 | 21.6 |  |  | 10 | 32.8 | 26.8 | 21.8 | 36.3
